# Test results taken from ChEMBL document CHEMBL2057100, “The optimization of pyridazinone series of glucan synthase inhibitors” (Bioorg Med Chem Lett, 2012).
# Assays:
# [1] = test system: Candida albicans; experiment: Antifungal activity against Candida albicans C693 by broth dilution method; assay type: functional; settings: read-out: MIC100
# [2] = molecular target: T1, Beta-1,3-glucan synthase (Candida albicans, UniProt O13383); experiment: Inhibition of 1,3-beta-D-glucan synthase in Candida albicans BWP17 membranes; assay type: cell membranes
# T1 sequence (O13383 whole entry): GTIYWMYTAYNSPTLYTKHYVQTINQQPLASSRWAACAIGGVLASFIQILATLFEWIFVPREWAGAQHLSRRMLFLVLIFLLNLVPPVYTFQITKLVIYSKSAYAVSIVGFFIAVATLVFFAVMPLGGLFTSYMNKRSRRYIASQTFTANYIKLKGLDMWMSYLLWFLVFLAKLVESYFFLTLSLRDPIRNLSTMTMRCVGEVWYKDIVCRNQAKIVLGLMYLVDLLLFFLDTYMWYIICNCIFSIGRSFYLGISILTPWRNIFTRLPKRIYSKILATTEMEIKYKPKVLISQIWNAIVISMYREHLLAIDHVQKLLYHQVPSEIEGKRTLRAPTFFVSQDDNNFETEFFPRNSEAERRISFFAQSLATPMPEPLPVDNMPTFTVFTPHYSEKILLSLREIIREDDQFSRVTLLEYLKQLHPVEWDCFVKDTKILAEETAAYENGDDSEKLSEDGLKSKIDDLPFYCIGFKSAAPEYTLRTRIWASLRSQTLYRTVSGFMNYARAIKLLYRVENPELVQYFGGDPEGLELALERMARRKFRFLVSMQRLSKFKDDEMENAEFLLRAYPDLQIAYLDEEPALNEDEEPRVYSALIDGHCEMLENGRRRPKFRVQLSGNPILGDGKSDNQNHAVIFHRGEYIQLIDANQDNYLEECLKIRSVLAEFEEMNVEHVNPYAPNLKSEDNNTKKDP
# [3] = test system: Aspergillus fumigatus; experiment: Antifungal activity against Aspergillus fumigatus ND158 by broth dilution method; assay type: functional; settings: read-out: MEC
# [4] = test system: Nakaseomyces glabratus; experiment: Antifungal activity against Candida glabrata C624 by broth dilution method; assay type: functional; settings: read-out: MIC100
# [5] = Cmax in rat at 10 mg/kg, po; assay type: ADME, organism-based; parameters: dose 10 mg/kg, route oral; settings: in vivo
# [6] = AUC (0 to 6 hrs) in rat at 10 mg/kg, po; assay type: ADME, organism-based, Plasma; parameters: time < 6 hr, dose 10 mg/kg, route oral; settings: plasma
MIC [1],IC50 [2],MIC [4],Cmax [5],AUC(0-t) at 6 h [6],Compound,minimal effective concentration [3]
1.04 µg/mL,125 nM,0.13 µg/mL,3500 ng/mL,14500 ng·h/mL,Cc1cc(CS(=O)(=O)N2CCN(c3cnn(-c4cc(F)cc(F)c4)c(=O)c3OCC3(C)CC3)CC2)ccc1N,4.2 µg/mL
0.26 µg/mL,87.4 nM,0.06 µg/mL,,,CN(C)c1ccc(CS(=O)(=O)N2CCN(c3cnn(-c4cccc(Cl)c4)c(=O)c3OCC3(C)CC3)CC2)cc1,16.7 µg/mL
> 50 µg/mL,4190 nM,25 µg/mL,,,O=C(O)c1ccc(CS(=O)(=O)N2CCN(c3cnn(-c4cccc(Cl)c4)c(=O)c3OC3CCCC3)CC2)cc1,
0.13 µg/mL,69 nM,< 0.02 µg/mL,330 ng/mL,1100 ng·h/mL,CC1(COc2c(N3CCN(S(=O)(=O)Cc4ccc(N)c(Cl)c4)CC3)cnn(-c3cc(F)cc(F)c3)c2=O)CC1,0.52 µg/mL
> 33 µg/mL,637 nM,0.52 µg/mL,440 ng/mL,640 ng·h/mL,CC1(COc2c(N3CCN(S(=O)(=O)Cc4ccc(N)c(C(F)(F)F)c4)CC3)cnn(-c3cccc(Cl)c3)c2=O)CC1,> 33 µg/mL
16.7 µg/mL,275 nM,1.04 µg/mL,,,CC1(COc2c(N3CCN(S(=O)(=O)Cc4ccnc(N)c4)CC3)cnn(-c3cccc(Cl)c3)c2=O)CC1,8.4 µg/mL
1.56 µg/mL,110 nM,0.05 µg/mL,,,O=c1c(OC2CCCC2)c(N2CCN(S(=O)(=O)Cc3ccc(F)cc3)CC2)cnn1-c1cccc(Cl)c1,
0.52 µg/mL,128 nM,0.13 µg/mL,,5700 ng·h/mL,Nc1cccc(CS(=O)(=O)N2CCN(c3cnn(-c4cc(F)cc(F)c4)c(=O)c3OC3CCCC3)CC2)c1,
0.1 µg/mL,56.7 nM,< 0.02 µg/mL,,,CC1(COc2c(N3CCN(S(=O)(=O)Cc4ccccc4)CC3)cnn(-c3cccc(Cl)c3)c2=O)CC1,
1.56 µg/mL,160 nM,0.05 µg/mL,,,O=c1c(OC2CCCC2)c(N2CCN(S(=O)(=O)Cc3cccc(Cl)c3)CC2)cnn1-c1cccc(Cl)c1,
25 µg/mL,1650 nM,0.78 µg/mL,,,O=c1c(OC2CCC(O)C2)c(N2CCN(S(=O)(=O)Cc3ccccc3)CC2)cnn1-c1cccc(Cl)c1 (stereo unspecified),

# More lines, now with the values behind:
Compound,MIC [1],IC50 [2],MIC [4],Cmax [5],AUC(0-t) at 6 h [6],minimal effective concentration [3]
CC1(COc2c(N3CCN(S(=O)(=O)Cc4ccc(N)c(C(N)=O)c4)CC3)cnn(-c3cccc(Cl)c3)c2=O)CC1,> 33 µg/mL,511 nM,8.34 µg/mL,,,> 33 µg/mL
CC1(COc2c(N3CCN(S(=O)(=O)Cc4ccc(N)cc4)CC3)cnn(-c3cccc(Cl)c3)c2=O)CC1,1.04 µg/mL,110 nM,0.26 µg/mL,1900 ng/mL,8100 ng·h/mL,4.2 µg/mL
O=c1c(OC2CCCC2)c(N2CCN(S(=O)(=O)Cc3ccccc3)CC2)cnn1-c1cccc(Cl)c1,0.39 µg/mL,378 nM,< 0.02 µg/mL,,,
COc1cc(CS(=O)(=O)N2CCN(c3cnn(-c4cccc(Cl)c4)c(=O)c3OCC3(C)CC3)CC2)ccc1N,0.52 µg/mL,105 nM,0.06 µg/mL,3300 ng/mL,13100 ng·h/mL,2.08 µg/mL
O=c1c(OC2CCCC2)c(N2CCN(S(=O)(=O)Cc3cc(C(F)(F)F)cc(C(F)(F)F)c3)CC2)cnn1-c1cccc(Cl)c1,> 50 µg/mL,> 226000 nM,> 50 µg/mL,,,
O=c1c(OC2CCc3cccnc32)c(N2CCN(S(=O)(=O)Cc3ccccc3)CC2)cnn1-c1cccc(Cl)c1 (stereo unspecified),12.5 µg/mL,1380 nM,0.78 µg/mL,,,
CC1(COc2c(N3CCN(S(=O)(=O)Cc4cccc(N)c4)CC3)cnn(-c3cccc(Cl)c3)c2=O)CC1,0.52 µg/mL,73.5 nM,0.13 µg/mL,1400 ng/mL,5700 ng·h/mL,1.04 µg/mL
O=c1c(OC2CCCCC2)c(N2CCN(S(=O)(=O)Cc3ccccc3)CC2)cnn1-c1cccc(Cl)c1,0.78 µg/mL,1470 nM,< 0.02 µg/mL,,,
CC1(COc2c(N3CCN(S(=O)(=O)Cc4ccc(N)nc4)CC3)cnn(-c3cccc(Cl)c3)c2=O)CC1,2.08 µg/mL,91.7 nM,0.06 µg/mL,1000 ng/mL,3100 ng·h/mL,8.4 µg/mL
CNc1ccc(CS(=O)(=O)N2CCN(c3cnn(-c4cccc(Cl)c4)c(=O)c3OCC3(C)CC3)CC2)cc1,0.2 µg/mL,17.9 nM,0.78 µg/mL,,,> 50 µg/mL
O=c1c(OC2CCCC2)c(N2CCN(S(=O)(=O)Cc3ccccc3)CC2)cnn1-c1cc(F)cc(F)c1,0.39 µg/mL,56.5 nM,0.4 µg/mL,,,
CC1(COc2c(N3CCN(S(=O)(=O)Cc4ccc(N)c(F)c4)CC3)cnn(-c3cc(F)cc(F)c3)c2=O)CC1,0.26 µg/mL,53.2 nM,0.06 µg/mL,310 ng/mL,890 ng·h/mL,2.08 µg/mL
O=c1c(OC2CCCC2)c(N2CCN(S(=O)(=O)Cc3ccccc3F)CC2)cnn1-c1cccc(Cl)c1,0.39 µg/mL,73.1 nM,0.2 µg/mL,,,
O=c1c(OCCc2ccccn2)c(N2CCN(S(=O)(=O)Cc3ccccc3)CC2)cnn1-c1cccc(Cl)c1,6.25 µg/mL,1060 nM,0.39 µg/mL,,,
O=c1c(OC2CCCC2)c(N2CCN(S(=O)(=O)Cc3ccc(Cl)cc3)CC2)cnn1-c1cccc(Cl)c1,0.63 µg/mL,142 nM,0.31 µg/mL,,,
O=c1c(OC2CCCc3ncccc32)c(N2CCN(S(=O)(=O)Cc3ccccc3)CC2)cnn1-c1cccc(Cl)c1 (stereo unspecified),> 50 µg/mL,6760 nM,1.6 µg/mL,,,
O=c1c(OC2CCOCC2)c(N2CCN(S(=O)(=O)Cc3ccccc3)CC2)cnn1-c1cccc(Cl)c1,3.13 µg/mL,917 nM,0.02 µg/mL,,,
CC(C)(O)CCOc1c(N2CCN(S(=O)(=O)Cc3ccccc3)CC2)cnn(-c2cc(F)cc(F)c2)c1=O,25 µg/mL,565 nM,0.78 µg/mL,,,
Nc1ccc(CS(=O)(=O)N2CCN(c3cnn(-c4cccc(Cl)c4)c(=O)c3OC3CCCC3)CC2)cc1,0.78 µg/mL,91.9 nM,0.2 µg/mL,,,
O=c1c(OC2CCCC2)c(N2CCN(S(=O)(=O)Cc3cc(Cl)cc(Cl)c3)CC2)cnn1-c1cccc(Cl)c1,> 50 µg/mL,351 nM,0.39 µg/mL,,,
Nc1ccc(CS(=O)(=O)N2CCN(c3cnn(-c4cc(F)cc(F)c4)c(=O)c3OC3CCCC3)CC2)cc1,1.04 µg/mL,110 nM,0.26 µg/mL,,8100 ng·h/mL,
O=c1c(OC2CCCC2)c(N2CCN(S(=O)(=O)Cc3ccncc3)CC2)cnn1-c1cc(F)cc(F)c1,3.1 µg/mL,564 nM,0.2 µg/mL,,20 ng·h/mL,
O=c1c(OC2CCCC2)c(N2CCN(S(=O)(=O)Cc3cccc(F)c3)CC2)cnn1-c1cc(F)cc(F)c1,0.1 µg/mL,72.9 nM,< 0.02 µg/mL,,,
O=c1c(OCC2(CF)CC2)c(N2CCN(S(=O)(=O)Cc3ccccc3)CC2)cnn1-c1cccc(Cl)c1,0.2 µg/mL,54.8 nM,< 0.02 µg/mL,,,
